Results: ChEMBL document CHEMBL5120745, “LC-MS Identification, Isolation, and Structural Elucidation of Anti-HIV Tigliane Diterpenoids from Wikstroemia lamatsoensis” (J Nat Prod, 2021)

What was measured:
[1] = system: Human immunodeficiency virus 1; assay: Antiviral activity against HIV-1 NL4-3 infected in human MT4 cells assessed as inhibition of viral replication by Nano-Glo luciferase assay; type: functional, organism-based; settings: Human immunodeficiency virus 1, NL4-3, MT4
[2] = Cytotoxicity against human MT4 cells assessed as reduction in cell viability by CellTiter-Glo luminescence analysis; type: toxicity, cell-based
[3] = Selectivity index, ratio of CC50 for human MT4 cells to IC50 for antiviral activity against HIV-1 NL4-3 infected in human MT4 cells; type: toxicity, cell-based; settings: read-out: Ratio CC50/IC50

| SMILES | IC50 [1] [nM] | CC50 [2] [nM] | selectivity ratio [3] |
| --- | --- | --- | --- |
| C=C(C)[C@]12C[C@@H](COC(=O)c3ccccc3)[C@@]34OC5(O[C@@H]1[C@@H]3[C@@H]1O[C@]1(CO)[C@@H](O)[C@@]1(O)[C@H]4[C@H]([C@H](C)[C@@H]1OC(=O)c1ccccc1)[C@H](C)CCCCCC[C@H]5O)O2 | 0.07 | > 5 | – |
| CCCCCCCC(=O)O[C@@]12C[C@@H](C)[C@@]3(O)[C@H]([C@@H]1C2(C)C)[C@@H](OO)C(CO)=C[C@]1(O)C(=O)C(C)=C[C@@H]31 | > 41 | > 41 | – |
| CCCCCCCC(=O)O[C@@]12[C@H](OC(=O)c3ccccc3)[C@@H](C)[C@@]3(O)C(=C[C@](O)(CO)C[C@]4(O)C(=O)C(C)=C[C@@H]34)[C@@H]1C2(C)C | > 41 | > 41 | – |
| CCCCCCCC(=O)O[C@@]12C[C@@H](C)[C@@]3(O)[C@@H](C(=O)C(CO)=C[C@]4(O)C(=O)C(C)=C[C@@H]34)[C@@H]1C2(C)C | > 41 | > 41 | – |
| CCCCCCCC(=O)O[C@@]12[C@H](OC(=O)c3ccccc3)[C@@H](C)[C@@]3(O)[C@@H](C(=O)C(CO)=C[C@]4(O)C(=O)C(C)=C[C@@H]34)[C@@H]1C2(C)C | – | > 41 | – |
| CCCCCCCC(=O)O[C@@]12[C@H](OC(=O)c3ccccc3)[C@@H](C)[C@@]3(O)[C@H]([C@@H]1C2(C)C)[C@@H](OO)C(CO)=C[C@]1(O)C(=O)C(C)=C[C@@H]31 | – | – | < 5 |
| CCCCCCCC(=O)O[C@@]12[C@H](OC(=O)c3ccccc3)[C@@H](C)[C@@]3(O)[C@@H](C=C(CO)C[C@]4(O)C(=O)C(C)=C[C@@H]34)[C@@H]1C2(C)C | 0.18 | > 41 | – |
| CCCCCCCC(=O)O[C@@]12[C@H](OC(=O)c3ccccc3)[C@@H](C)[C@]3(O)[C@@H]4C=C(C)C(=O)[C@@]4(O)[C@H](O)C(CO)=C[C@H]3[C@@H]1C2(C)C | – | > 41 | – |
| CCCCCCCC(=O)O[C@@]12[C@H](OC(=O)c3ccccc3)[C@@H](C)[C@@]3(O)[C@H]([C@@H]1C2(C)C)[C@@H](O)C(CO)=C[C@]1(O)C(=O)C(C)=C[C@@H]31 | > 41 | > 41 | – |
